Assay results reported in publication PMC11292009, “Mapping protein binding sites by photoreactive fragment pharmacophores” (Communications Chemistry, 2024).
Values joined by “and” are separate entries in the source; they are usually repeats but may differ in a detail not shown here. Equal entries are not always repeated. Each block holds one molecule with its values, some of them ahead of it.

Legend:
STAT5B NTD = target: T1, STAT5B NTD (Homo sapiens, UniProt P51692); assay: Microscale thermophoresis (MST), without irradiation; assay type: binding; settings: for ΔFnorm: Fnorm - Unbound value; for Fnorm: MST raw data; for Kd: MST, without irradiation, 25 °C
T1 construct: His-SUMO (N, cleaved yes); made in house; host or cells: E. coli BL21 RILP
T1 sequence (P51692 1-123): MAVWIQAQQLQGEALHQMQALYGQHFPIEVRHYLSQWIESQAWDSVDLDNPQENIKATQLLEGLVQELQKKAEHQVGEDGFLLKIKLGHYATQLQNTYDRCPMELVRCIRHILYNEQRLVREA
Method: For the microscale thermophoresis (MST) studies, we prepared 16 two-fold serial dilutions of compounds starting from 500 μM. Titration series were prepared that contained 10 μL of compounds’ solutions of varying concentrations and 10 μL RED-NHS 2nd Generation labeled STAT5B NTD with a concentration of 168 nM for compound PhP097, and a concentration of 84 nM for compound PhP065. Final buffer composition included 1X PBS containing 0.5% DMSO. All measurements were taken in Premium Coated Capillaries on a Monolith NT.115 instrument (NanoTemper Technologies, Munich, Germany) using 80% infrared laser power for compound PhP097, 60% infrared laser power for compound PhP065, and an LED excitation source with λ = 650 nm at a temperature of 25 °C. Results were expressed as the mean of two separate experiments, with three technical replicates each. GraphPad Prism 9.5.1 software was used to fit the data and to determine the KD values.

MV4-11 cells = assay: CellTiter-Blue cell viability assay, MV4-11; assay type: cell-based; settings: Homo sapiens, MV4-11, 72 h
Method: MV4-11 and MOLM-13 cell lines were purchased from DSMZ (Braunschweig, Germany), and grown at 37 °C and 5% CO2 in RPMI 1640 medium (Gibco^TM, Thermo Fisher Scientific). Media were supplemented with 10% fetal calf serum (FCS), 10 U/mL penicillin, 10 µg/mL streptomycin and 2 mM L-glutamine (all Gibco^TM, Thermo Fisher Scientific).
To determine the IC50 of the selected compounds on the cell lines, CellTiter-Blue® cell viability assay (Promega) was performed. For this, cells were seeded in 96-well flat bottom plates at a cell density of 10,000 cells/well. Cells were treated in triplicates with the compound of interest at various concentrations or with 10 μM Bortezomib (S1013; Selleck Chemicals, Houston, TX, USA) as a positive control. Cell viability of treated cell lines was measured using CellTiter-Blue® after 72 h incubation. Plates were measured using a GloMax® plate reader (Promega) and IC50 values were determined by non-linear regression using the GraphPad Prism 9.1.1 (GraphPad Software, Inc.) and the data are reported as mean values ± SEM.

[1] = Php065 concentration [log, µM] 0.290724, runs/replicates
[2] = Php065 concentration [log, µM] 0.591766, runs/replicates
[3] = Php065 concentration [log, µM] 0.89279, runs/replicates
[4] = Php065 concentration [log, µM] 1.19382, runs/replicates
[5] = Php065 concentration [log, µM] 1.49485, runs/replicates
[6] = Php065 concentration [log, µM] 1.79588, runs/replicates
[7] = Php065 concentration [log, µM] 2.09691, runs/replicates
[8] = Php065 concentration [log, µM] -0.0102833, runs/replicates
[9] = Php065 concentration [log, µM] -0.612432, runs/replicates
[10] = Php065 concentration [log, µM] -1.21467, runs/replicates

- Kd (STAT5B NTD): 2.58 µM
- IC50 (MV4-11 cells): 76.2 µM
Compound: Cc1[nH]c2ccccc2c1SCCNC(=O)CCC1(C)N=N1 [PhP065, c1cccc(c12)c(c(C)[nH]2)SCCNC(=O)CCC3(C)N=N3]
- ΔFnorm (STAT5B NTD; [1]): 0.9086 ‰ and 1.12 ‰ and 1.315 ‰ and 0.6539 ‰ and 3.352 ‰
- ΔFnorm (STAT5B NTD; [2]): 1.904 ‰ and 1.964 ‰ and 2.239 ‰ and 1.873 ‰ and 1.543 ‰
- ΔFnorm (STAT5B NTD; [3]): 2.551 ‰ and 2.874 ‰ and 3.878 ‰ and 2.514 ‰ and 2.452 ‰
- ΔFnorm (STAT5B NTD; [4]): 2.441 ‰ and 3.584 ‰ and 3.84 ‰ and 4.085 ‰ and 3.441 ‰
- ΔFnorm (STAT5B NTD; [5]): 2.771 ‰ and 2.9356 ‰ and 3.692 ‰ and 3.134 ‰ and 1.982 ‰
- ΔFnorm (STAT5B NTD; [6]): 5.943 ‰ and 5.783 ‰ and 5.743 ‰ and 2.367 ‰ and 1.87 ‰
- ΔFnorm (STAT5B NTD; [7]): 3.3934 ‰ and 3.578 ‰ and 3.242 ‰ and 3.625 ‰ and 1.481 ‰
- ΔFnorm (STAT5B NTD; [8]): -0.1141 ‰ and 1.411 ‰ and 0.9224 ‰ and 2.015 ‰ and 2.612 ‰
- ΔFnorm (STAT5B NTD; [9]): 0.5449 ‰ and 0.5795 ‰ and -0.1361 ‰ and -1.636 ‰ and -0.3141 ‰
- ΔFnorm (STAT5B NTD; [10]): -0.5121 ‰ and -0.1857 ‰ and -0.4698 ‰ and -1.614 ‰ and -1.146 ‰
- Fnorm (STAT5B NTD; [1]): 864.059 ‰ and 864.76 ‰ and 864.855 ‰ and 874.324 ‰ and 877.312 ‰
- Fnorm (STAT5B NTD; [2]): 865.054 ‰ and 865.604 ‰ and 865.779 ‰ and 875.543 ‰ and 875.503 ‰
- Fnorm (STAT5B NTD; [3]): 865.701 ‰ and 866.514 ‰ and 867.418 ‰ and 876.184 ‰ and 876.412 ‰
- Fnorm (STAT5B NTD; [4]): 865.591 ‰ and 867.224 ‰ and 867.38 ‰ and 877.755 ‰ and 877.401 ‰
- Fnorm (STAT5B NTD; [5]): 865.921 ‰ and 866.576 ‰ and 867.232 ‰ and 876.804 ‰ and 875.942 ‰
- Fnorm (STAT5B NTD; [6]): 869.093 ‰ and 869.423 ‰ and 869.283 ‰ and 876.037 ‰ and 875.83 ‰
- Fnorm (STAT5B NTD; [7]): 866.543 ‰ and 867.218 ‰ and 866.782 ‰ and 877.295 ‰ and 875.441 ‰
- Fnorm (STAT5B NTD; [8]): 863.036 ‰ and 865.051 ‰ and 864.462 ‰ and 875.685 ‰ and 876.572 ‰
- Fnorm (STAT5B NTD; [9]): 863.695 ‰ and 864.219 ‰ and 863.404 ‰ and 872.034 ‰ and 873.646 ‰
- Fnorm (STAT5B NTD; [10]): 862.638 ‰ and 863.454 ‰ and 863.07 ‰ and 872.056 ‰ and 872.814 ‰

- Kd (STAT5B NTD): 18.1 µM
- IC50 (MV4-11 cells): 56.6 µM
Compound: CC1(CCC(=O)NCCc2csc(-c3ccccc3)n2)N=N1 [PhP097, N1=NC1(C)CCC(=O)NCCc2csc(n2)-c3ccccc3]
- ΔFnorm (STAT5B NTD; Php097 concentration [log, µM] 0.591766, runs/replicates): 5.764 ‰ and 7.778 ‰ and 6.699 ‰ and -1.199 ‰ and -1.302 ‰ and -4.005 ‰
- ΔFnorm (STAT5B NTD; Php097 concentration [log, µM] 0.89279, runs/replicates): -7.395 ‰ and -5.5397 ‰ and -5.711 ‰ and 0.2163 ‰ and 4.053 ‰ and 0.9615 ‰
- ΔFnorm (STAT5B NTD; Php097 concentration [log, µM] 1.19382, runs/replicates): -4.091 ‰ and -1.8497 ‰ and -1.165 ‰ and -5.318 ‰ and -5.614 ‰ and -5.274 ‰
- ΔFnorm (STAT5B NTD; Php097 concentration [log, µM] 1.49485, runs/replicates): -4.445 ‰ and -4.535 ‰ and -5.873 ‰ and -8.126 ‰ and -4.727 ‰ and -7.108 ‰
- ΔFnorm (STAT5B NTD; Php097 concentration [log, µM] 1.79588, runs/replicates): -8.587 ‰ and -6.363 ‰ and -6.457 ‰ and -11.6433 ‰ and -8.368 ‰ and -12.1062 ‰
- ΔFnorm (STAT5B NTD; Php097 concentration [log, µM] 2.09691, runs/replicates): -14.77 ‰ and -11.6203 ‰ and -10.8651 ‰ and -10.9408 ‰ and -5.699 ‰ and -12.7461 ‰
- ΔFnorm (STAT5B NTD; Php097 concentration [log, µM] 2.39794, runs/replicates): -1.7884 ‰ and 0.2047 ‰ and 0.7983 ‰ and -10.6185 ‰ and -13.0284 ‰ and -12.5258 ‰
- ΔFnorm (STAT5B NTD; Php097 concentration [log, µM] -0.0102833, runs/replicates): 4.6455 ‰ and 5.66 ‰ and 7.637 ‰ and -9.481 ‰ and -8.884 ‰ and -7.417 ‰
- ΔFnorm (STAT5B NTD; Php097 concentration [log, µM] -0.311313, runs/replicates): -5.603 ‰ and -3.243 ‰ and -1.459 ‰ and 3.271 ‰ and 2.052 ‰ and 1.015 ‰
- ΔFnorm (STAT5B NTD; Php097 concentration [log, µM] -0.913284, runs/replicates): 4.1952 ‰ and 9.04 ‰ and 7.8226 ‰ and -0.03038 ‰ and -2.726 ‰ and -0.9924 ‰
- ΔFnorm (STAT5B NTD; Php097 concentration [log, µM] -1.5157, runs/replicates): 0.7011 ‰ and -0.01526 ‰ and 1.427 ‰ and -0.3532 ‰
- Fnorm (STAT5B NTD; PhP097 concentration [log, µM] 0.591766, runs/replicates): 720.204 ‰ and 719.528 ‰ and 720.009 ‰ and 710.951 ‰ and 712.028 ‰ and 710.045 ‰
- Fnorm (STAT5B NTD; PhP097 concentration [log, µM] 0.89279, runs/replicates): 707.045 ‰ and 706.21 ‰ and 707.599 ‰ and 712.366 ‰ and 717.383 ‰ and 715.011 ‰
- Fnorm (STAT5B NTD; PhP097 concentration [log, µM] -0.0102833, runs/replicates): 719.086 ‰ and 717.41 ‰ and 720.947 ‰ and 702.669 ‰ and 704.446 ‰ and 706.633 ‰
- Fnorm (STAT5B NTD; PhP097 concentration [log, µM] -0.311313, runs/replicates): 708.837 ‰ and 708.507 ‰ and 711.851 ‰ and 715.421 ‰ and 715.382 ‰ and 715.065 ‰
- Fnorm (STAT5B NTD; PhP097 concentration [log, µM] -0.913284, runs/replicates): 718.635 ‰ and 720.79 ‰ and 721.133 ‰ and 712.12 ‰ and 710.604 ‰ and 713.058 ‰
- Fnorm (STAT5B NTD; PhP097 concentration [log, µM] -1.5157, runs/replicates): 715.141 ‰ and 711.735 ‰ and 714.737 ‰ and 711.797 ‰ and 713.155 ‰ and 719.464 ‰
